In brackets after ≈: the same amount, converted by molar mass.
Key:
[1] = Metabolic stability of the compound in mouse liver microsomes at 1 umol/L by HPLC-MS/MS analysis; assay type: ADME, Microsome; details: dose 1 µmol/L, read-out: Stability
[2] = Aqueous solubility of the compound at 125 ug/ml measured after 24 hrs at pH 6.8 by LC-UV analysis; assay type: physicochemical; details: for solubility: buffer, pH 6.8, 24 h, dose 125 µg/ml; for solubility at 24 h: aqueous medium, pH 6.8, dose 125 µg/ml
[3] = Aqueous solubility of the compound at 125 ug/ml measured after 24 hrs at pH 4.5 by LC-UV analysis; assay type: physicochemical; details: for solubility: buffer, pH 4.5, 24 h, dose 125 µg/ml; for solubility at 24 h: aqueous medium, pH 4.5, dose 125 µg/ml
[4] = Metabolic stability of the compound in rat liver microsomes at 1 umol/L by HPLC-MS/MS analysis; assay type: ADME, Microsome; details: dose 1 µmol/L, read-out: Stability
[5] = Metabolic stability of the compound in human liver microsomes at 1 umol/L by HPLC-MS/MS analysis; assay type: ADME, Microsome; details: dose 1 µmol/L, read-out: Stability
[6] = Stability of the compound in 1:1 acetonitrile/water at 125 ug/ml measured after 24 hrs by LC-UV analysis; assay type: physicochemical; details: buffer, at 125 µg/mL

| SMILES | remaining at 1 µM [1] [%] | solubility [2] [µM] | solubility [3] [µM] | remaining at 1 µM [4] [%] | remaining at 1 µM [5] [%] | solubility at 24 h [2] [µg/mL] | solubility at 24 h [3] [µg/mL] | Stability [6] |
| --- | --- | --- | --- | --- | --- | --- | --- | --- |
| Cc1sc2c(c1C)C(c1ccc(Cl)cc1)=N[C@@H](CC(=O)NCCCCN1CCC(c3ccc4c(c3)CN(C3CCC(=O)NC3=O)C4=O)CC1)c1nnc(C)n1-2 (stereo partly specified) | < 24 | > 175 | > 189 | < 23 | 66 |  |  |  |
| Cc1sc2c(c1C)C(c1ccc(Cl)cc1)=N[C@@H](CC(=O)NCCCNc1ccc(Cc3ccc4c(c3)CN(C3CCC(=O)NC3=O)C4=O)cc1)c1nnc(C)n1-2 (stereo partly specified) | 70 |  |  | 48 | > 88 | 4 (≈ 5.07 µM) | 14 (≈ 17.7 µM) |  |
| Cc1sc2c(c1C)C(c1ccc(Cl)cc1)=N[C@@H](CC(=O)NCCN1CC(N3CCC(c4ccc5c(c4)CN(C4CCC(=O)NC4=O)C5=O)CC3)C1)c1nnc(C)n1-2 (stereo partly specified) | 25 | > 174 | > 188 | < 23 | 41 |  |  | Unstable |
| Cc1sc2c(c1C)C(c1ccc(Cl)cc1)=N[C@@H](CC(=O)NCCNc1ccc(Cc3ccc4c(c3)CN(C3CCC(=O)NC3=O)C4=O)cc1)c1nnc(C)n1-2 (stereo partly specified) | 55 |  |  | 42 | 86 | 1 (≈ 1.29 µM) | 3 (≈ 3.87 µM) |  |
| Cc1sc2c(c1C)C(c1ccc(Cl)cc1)=N[C@@H](CC(=O)NCCCCCCN1CCC(c3ccc4c(c3)CN(C3CCC(=O)NC3=O)C4=O)CC1)c1nnc(C)n1-2 (stereo partly specified) | < 24 | > 182 | > 197 | < 23 | 53 |  |  |  |
| Cc1sc2c(c1C)C(c1ccc(Cl)cc1)=N[C@@H](CC(=O)NCCCCCCNc1ccc(Cc3ccc4c(c3)CN(C3CCC(=O)NC3=O)C4=O)cc1)c1nnc(C)n1-2 (stereo partly specified) | 83 | < 1 |  | 66 | > 88 |  | 3 (≈ 3.61 µM) |  |
| Cc1sc2c(c1C)C(c1ccc(Cl)cc1)=N[C@@H](CC(=O)NCCCCCNc1ccc(Cc3ccc4c(c3)CN(C3CCC(=O)NC3=O)C4=O)cc1)c1nnc(C)n1-2 (stereo partly specified) | 76 | < 1 |  | 58 | > 88 |  | 6 (≈ 7.34 µM) |  |
| Cc1sc2c(c1C)C(c1ccc(Cl)cc1)=N[C@@H](CC(=O)NCCN1CCC3(CCC(c4ccc5c(c4)CN(C4CCC(=O)NC4=O)C5=O)CC3)CC1)c1nnc(C)n1-2 (stereo partly specified) | 44 |  | > 190 | 33 | 56 | 161 (≈ 196 µM) |  |  |
| Cc1sc2c(c1C)C(c1ccc(Cl)cc1)=N[C@@H](CC(=O)NCCCCNc1ccc(Cc3ccc4c(c3)CN(C3CCC(=O)NC3=O)C4=O)cc1)c1nnc(C)n1-2 (stereo partly specified) | 77 | < 1 |  | 62 | > 88 |  | 4 (≈ 4.98 µM) |  |
| Cc1sc2c(c1C)C(c1ccc(Cl)cc1)=N[C@@H](CC(=O)NCCCN1CCC(c3ccc4c(c3)CN(C3CCC(=O)NC3=O)C4=O)CC1)c1nnc(C)n1-2 (stereo partly specified) | 27 | > 175 | > 185 | < 23 | 34 |  |  |  |
| Cc1sc2c(c1C)C(c1ccc(Cl)cc1)=N[C@@H](CC(=O)NCCN1CCC(c3ccc4c(c3)CN(C3CCC(=O)NC3=O)C4=O)CC1)c1nnc(C)n1-2 (stereo partly specified) | 25 | > 162 | > 177 | 40 | 68 |  |  |  |
| Cc1sc2c(c1C)C(c1ccc(Cl)cc1)=N[C@@H](CC(=O)NCCCCCN1CCC(c3ccc4c(c3)CN(C3CCC(=O)NC3=O)C4=O)CC1)c1nnc(C)n1-2 (stereo partly specified) | 27 | > 178 | > 191 | < 23 | 54 |  |  |  |
| Cc1sc2c(c1C)C(c1ccc(Cl)cc1)=N[C@@H](CC(=O)N1CCC(c3ccc4c(c3)CN(C3CCC(=O)NC3=O)C4=O)CC1)c1nnc(C)n1-2 (stereo partly specified) | 51 |  |  | 34 | 67 | 26 (≈ 36.6 µM) | 36 (≈ 50.7 µM) |  |
| Cc1sc2c(c1C)C(c1ccc(Cl)cc1)=N[C@@H](CC(=O)NCCN1CC3(CCC(c4ccc5c(c4)CN(C4CCC(=O)NC4=O)C5=O)CC3)C1)c1nnc(C)n1-2 (stereo partly specified) | 33 |  | > 190 | < 23 | 60 | 101 (≈ 127 µM) |  |  |
| Cc1sc2c(c1C)C(c1ccc(Cl)cc1)=N[C@@H](CC(=O)Nc1ccc(Cc3ccc4c(c3)CN(C3CCC(=O)NC3=O)C4=O)cc1)c1nnc(C)n1-2 (stereo partly specified) | 25 | < 1 | < 1 | 64 | 37 |  |  |  |
